The text below walks through data of patent US20090136448A1, “Antiviral 2-Carboxy-Thiophene Compounds” (priority 2005, published 2009).

The term IC50 denotes the concentration at which inhibition is half-maximal.

Test [1] deals with HCV replication, genotype 1a (Huh-7 HCV replicon cell). Kind of test: Replicon ELISA cell based assay, genotype 1a. To be noted: Hepatitis C virus, Huh-7 HCV replicon cells, 72 hours, mean, assayed at least twice. As for the experimental part:
(§1) Replicon ELISA Cell Based Assay
(§2) 100 μL of medium containing 10% FCS were added to each well of clear, flat-bottomed 96 well microplates, excepting wells in the top row. Test compound was diluted in assay medium to twice the final required starting concentration from a 40 mM stock solution in DMSO. 200 μL of the starting dilution were introduced into two wells each in the top row and doubling dilutions made down the plate by the sequential transfer of 100 μL aliquots with thorough mixing in the wells; the final 100 μL were discarded. The two bottom rows were not used for compound dilutions. Huh-7 HCV replicon cell monolayers nearing confluency were stripped from growth flasks with versene-trypsin solution and the cells were resuspended in assay medium at either 2×10^5 cells/mL (sub-line 5-15; genotype 1b; Lohmann, V., Korner, F., Koch, J-O., Herian, U., Thielmann, L. and Bartenschlager, R., Science, 1999, 285, 110-113) or at 3×10^5 cells/mL (genotype 1a; Gu, B., Gates, A. T., Isken, O., Behrens, S. E. and Sarisky, R. T., J. Virol., 2003, 77, 5352-5359). 100 μL of cell suspension were added to all wells and the plates incubated at 37° C. for 72 hours in a 5% CO2 atmosphere.
(§3) Following incubation, the assay medium was aspirated from the plates. The cell sheets were washed by gentle immersion in phosphate buffered saline (PBS), which was then aspirated off, and fixed with acetone:methanol (1:1) for 5 minutes. Following a further wash with PBS, 100 μL of ELISA diluent (PBS+0.05% v/v Tween 20+2% w/v skimmed milk powder) were added to all wells and the plates incubated at 37° C. for 30 minutes on an orbital platform. The diluent was removed and each well then received 50 μL of a 1/200 dilution of anti-HCV specific, murine, monoclonal antibody (either Virostat #1872 or #1877), except for wells in one of the compound-free control rows which received diluent alone to act as negative controls. The plates were incubated at 37° C. for 2 hours and washed 3 times with PBS/0.05% Tween 20, then 50 μL of horseradish peroxidase conjugated, anti-mouse, rabbit polyclonal serum (Dako #P0260), diluted 1/1000, were added to all wells. The plates were incubated for a further hour, the antibody removed and the cell sheets washed 5 times with PBS/Tween and blotted dry. The assay was developed by the addition of 50 μL of ortho-phenylenediamine/peroxidase substrate in urea/citrate buffer (SigmaFast, Sigma #P-9187) to each well, and colour allowed to develop for up to 15 minutes. The reaction was stopped by the addition of 25 μL per well of 2 M sulphuric acid and the plates were read at 490 nm on a Fluostar Optima spectrophotometer.
(§4) The substrate solution was removed and the plates were washed in tap water, blotted dry and the cells stained with 5% carbol fuchsin in water for 30 minutes. The stain was discarded and the cell sheets washed, dried and examined microscopically to assess cytotoxicity.
(§5) The absorbance values from all compound-free wells that had received both primary and secondary antibodies were averaged to obtain a positive control value. The mean absorbance value from the compound-free wells that had not received the primary antibody was used to provide the negative (background) control value. The readings from the duplicate wells at each compound concentration were averaged and, after the subtraction of the mean background from all values, were expressed as a percentage of the positive control signal. The quantifiable and specific reduction of expressed protein detected by the ELISA in the presence of a drug can be used as a measure of replicon inhibition. GraFit software (Erithacus Software Ltd.) was used to plot the curve of percentage inhibition against compound concentration and derive the 50% inhibitory concentration (IC50) for the compound.
In general terms: A replicon is a self-replicating genome or part of one, used to study replication in cells.

Test [2] deals with HCV replication, genotype 1b (Huh-7 HCV replicon cell, sub-line 5-15). The experiment in a line: Replicon ELISA cell based assay, genotype 1b. To be noted: Hepatitis C virus, Huh-7 HCV replicon cells, genotype 1b (sub-line 5-15), 72 hours, mean, assayed at least twice. As for the experimental part: as §1, §2, §3, §4, §5

In the case of `CC(C)N(c1cc(-c2ccc(-c3cc4ncccn4n3)cc2)sc1C(=O)O)C(=O)[C@H]1CC[C@H](C)CC1` [Example 2, 3-[[(trans-4-Methylcyclohexyl)carbonyl](1-methylethyl)amino]-5-(4-pyrazolo[1,5-a]pyrimidin-2-ylphenyl)-2-thiophenecarboxylic acid], the IC50 in test [1] and in test [2] was 10 to 50 nM throughout.

For `CC(C)N(c1cc(-c2ccc(-c3cc4ncccn4n3)cc2)sc1C(=O)O)C(=O)[C@H]1CC[C@H](C(F)(F)F)CC1` [Example 15, 3-((1-Methylethyl){[trans-4-(trifluoromethyl)cyclohexyl]carbonyl}-amino)-5-(4-pyrazolo[1,5-a]pyrimidin-2-ylphenyl)-2-thiophenecarboxylic acid], the IC50 in test [1] was in the range of 100 to 500 nM; in test [2] it was 50 to 100 nM.

For `CC(C)N(c1cc(-c2ccc(-c3nc4cc(N)ccc4o3)cc2)sc1C(=O)O)C(=O)[C@H]1CC[C@H](C)CC1` [Example 10, 5-[4-(5-Amino-1,3-benzoxazol-2-yl)phenyl]-3-[[(trans-4-methylcyclohexyl)carbonyl](1-methylethyl)amino]-2-thiophenecarboxylic acid], the IC50 lay in the range of 50 to 100 nM in test [1] and 100 to 500 nM in test [2].

Consider `CC(C)N(c1cc(-c2ccc(-c3cn4cc(N)ccc4n3)cc2)sc1C(=O)O)C(=O)[C@H]1CC[C@H](C)CC1` [Example 27, 5-[4-(6-Aminoimidazo[1,2-a]pyridin-2-yl)phenyl]-3-[[(trans-4-methylcyclohexyl)carbonyl](1-methylethyl)amino]-2-thiophenecarboxylic acid], for which the IC50 in test [1] and in test [2] was 100 to 500 nM in each case.

As to `Cc1cc(N)n2nc(-c3ccc(-c4cc(N(C(=O)[C@H]5CC[C@H](C)CC5)C(C)C)c(C(=O)O)s4)cc3)cc2n1` [Example 5, 5-[4-(7-Amino-5-methylpyrazolo[1,5-a]pyrimidin-2-yl)phenyl]-3-[[(trans-4-methylcyclohexyl)carbonyl](1-methylethyl)amino]-2-thiophenecarboxylic acid], the IC50 in test [1] and in test [2] was below 5 nM in each case.

Turning to `C[C@H]1CC[C@H](C(=O)N(CC2CC2)c2cc(-c3ccc(-c4cc5ncccn5n4)cc3)sc2C(=O)O)CC1` [Example 35, 3-{(Cyclopropylmethyl)[(trans-4-methylcyclohexyl)carbonyl]amino}-5-(4-pyrazolo[1,5-a]pyrimidin-2-ylphenyl)-2-thiophenecarboxylic acid], the figures for the IC50 in test [1] and in test [2] were 10 to 50 nM and 5 to 10 nM, respectively.

With `CC(C)N(c1cc(-c2ccccc2)sc1C(=O)O)C(=O)[C@H]1CC[C@H](C)CC1` [Compound A, 5-Phenyl-3-[[(trans-4-methylcyclohexyl)carbonyl](1-methylethyl)amino]-2-thiophenecarboxylic acid, reference compound], the IC50 in test [1] lay within 1000 to 5000 nM; in test [2], 100 to 500 nM.

Turning to `CC(C)N(c1cc(-c2coc(-c3nc4ccccc4o3)c2)sc1C(=O)O)C(=O)[C@H]1CC[C@H](C)CC1` [Example 31, 5-[5-(1,3-Benzoxazol-2-yl)-3-furanyl]-3-[[(trans-4-methylcyclohexyl)carbonyl](1-methylethyl)amino]-2-thiophenecarboxylic acid], the IC50 in test [1] and in test [2] was 100 to 500 nM each time.

On to `CC(C)N(c1cc(-c2ccc(-c3cn4ccsc4n3)cc2)sc1C(=O)O)C(=O)[C@H]1CC[C@H](C(F)(F)F)CC1` [Example 21, 5-(4-Imidazo[2,1-b][1,3]thiazol-6-ylphenyl)-3-((1-methylethyl){[trans-4-(trifluoromethyl)cyclohexyl]carbonyl}amino)-2-thiophenecarboxylic acid], for which the results for the IC50 in test [1] and in test [2] were 50 to 100 nM and 100 to 500 nM, respectively.

Take `CC(C)N(c1cc(-c2ccc(-c3cn4ccccc4n3)cc2)sc1C(=O)O)C(=O)[C@H]1CC[C@H](C)CC1` [Example 3, 5-(4-Imidazo[1,2-a]pyridin-2-ylphenyl)-3-[[(trans-4-methylcyclohexyl)carbonyl](1-methylethyl)amino]-2-thiophenecarboxylic acid]: the figures for the IC50 in test [1] and in test [2] were 50 to 100 nM and 10 to 50 nM, respectively.

`CC(C)N(c1cc(-c2ccc(-c3ccc4cc[nH]c4c3)cc2)sc1C(=O)O)C(=O)[C@H]1CC[C@H](C)CC1` [Example 42, 5-[4-(1H-Indol-6-yl)phenyl]-3-[[(trans-4-methylcyclohexyl)carbonyl](1-methylethyl)amino]-2-thiophenecarboxylic acid]: the figures for the IC50 in test [1] and in test [2] were 100 to 500 nM and 10 to 50 nM, respectively.

As to `CC(C)N(c1cc(-c2ccc(-c3nc4ncccc4o3)nc2)sc1C(=O)O)C(=O)[C@H]1CC[C@H](C)CC1` [Example 46, 3-[[(trans-4-Methylcyclohexyl)carbonyl](1-methylethyl)amino]-5-(6-[1,3]oxazolo[4,5-b]pyridin-2-yl-3-pyridinyl)-2-thiophenecarboxylic acid], the IC50 in test [1] and in test [2] was 100 to 500 nM throughout.

For `CCN(c1cc(-c2ccc(-c3cc4ncccn4n3)cc2)sc1C(=O)O)C(=O)[C@H]1CC[C@H](C)CC1` [Example 40, Ammonium 3-{ethyl[(trans-4-methylcyclohexyl)carbonyl]amino}-5-(4-pyrazolo[1,5-a]pyrimidin-2-ylphenyl)-2-thiophenecarboxylate], the 50% inhibitory concentration (IC50) in test [1] was 100 to 500 nM; in test [2] it was 5 to 10 nM.

As to `CC(C)N(C(=O)[C@H]1CC[C@H](C)C[C@H]1O)c1cc(-c2ccc(-c3cc4ncccn4n3)cc2)sc1C(=O)O` [Example 39, 3-[{[(1S,2R,4S)-2-Hydroxy-4-methylcyclohexyl]carbonyl}(1-methylethyl)amino]-5-(4-pyrazolo[1,5-a]pyrimidin-2-ylphenyl)-2-thiophenecarboxylic acid], the values for the IC50 in test [1] and in test [2] were 10 to 50 nM and 5 to 10 nM, respectively.

For `CC(C)N(c1cc(-c2ccc(-c3nc4ncccc4o3)cc2)sc1C(=O)O)C(=O)[C@H]1CC[C@H](C)CC1` [Example 8, 3-[[(4-Methylcyclohexyl)carbonyl](1-methylethyl)amino]-5-(4-[1,3]oxazolo[4,5-b]pyridin-2-ylphenyl)-2-thiophenecarboxylic acid], the IC50 in test [1] and in test [2] was 10 to 50 nM each time.

As for `CC(C)N(c1cc(-c2ccc(-c3cc4ccc(N)cc4o3)cc2)sc1C(=O)O)C(=O)[C@H]1CC[C@H](C)CC1` [Example 30, 5-[4-(6-Amino-1-benzofuran-2-yl)phenyl]-3-[[(trans-4-methylcyclohexyl)carbonyl](1-methylethyl)amino]-2-thiophenecarboxylic acid], the IC50 fell in the range of 100 to 500 nM in test [1] and 500 to 1000 nM in test [2].

Turning to `CC(C)N(C(=O)c1ccc(Cl)cc1Cl)c1cc(-c2ccc(-c3nnn[nH]3)cc2)sc1C(=O)O` [Compound F, 3-[[(2,4-Dichlorophenyl)carbonyl](1-methylethyl)amino]-5-[4-(1H-tetrazol-5-yl)phenyl]-2-thiophenecarboxylic acid, reference compound], the half-inhibitory concentration (IC50) in test [1] is 1000 to 5000 nM; in test [2], above 5000 nM.

Take `CC(C)N(c1cc(-c2ccc(-c3cc4nccc(N)n4n3)c(Cl)c2)sc1C(=O)O)C(=O)[C@H]1CC[C@H](C)CC1` [Example 33, 5-[4-(7-Aminopyrazolo[1,5-a]pyrimidin-2-yl)-3-chlorophenyl]-3-[[(trans-4-methylcyclohexyl)carbonyl](1-methylethyl)amino]-2-thiophenecarboxylic acid]: the IC50 in test [1] and in test [2] was below 5 nM in each case.
